Test results published in patent publication US6515103B1 (priority 1996, dated 2003).
Several values for one entry are separate records, joined by “and”; a condition that tells them apart may be missing. Equal values may be shown once. Read-outs that look alike come from different tables or passages of the source. Marks after values point to notes of the source that are not given here. Where a SMILES comes first, the peptide text is derived from it. [ ]: non-standard residue; d: D form. Gla = N[C@@H](CC(C(=O)O)C(=O)O)C(=O)O

Columns and labels:
NR1.1 B subtype = molecular target: T1, NR1.1 B subtype (Homo sapiens, UniProt Q05586); type: cell-based
T1 construct: expressed in transfected cells; host or cells: oocytes

[1] = system: young (<2 weeks old) mice; settings: mouse, in vivo
CF No. 1 mice = settings: mouse, in vivo; for anticonvulsant activity in CF No. 1 mice: sc
[2] = system: Frings audiogenic seizure-susceptible mice; settings: mouse, in vivo
AMPA receptor GluR1 = AMPA receptor GluR1 (Homo sapiens, UniProt P42261); type: cell-based
Sequence of AMPA receptor GluR1 (P42261 19-906): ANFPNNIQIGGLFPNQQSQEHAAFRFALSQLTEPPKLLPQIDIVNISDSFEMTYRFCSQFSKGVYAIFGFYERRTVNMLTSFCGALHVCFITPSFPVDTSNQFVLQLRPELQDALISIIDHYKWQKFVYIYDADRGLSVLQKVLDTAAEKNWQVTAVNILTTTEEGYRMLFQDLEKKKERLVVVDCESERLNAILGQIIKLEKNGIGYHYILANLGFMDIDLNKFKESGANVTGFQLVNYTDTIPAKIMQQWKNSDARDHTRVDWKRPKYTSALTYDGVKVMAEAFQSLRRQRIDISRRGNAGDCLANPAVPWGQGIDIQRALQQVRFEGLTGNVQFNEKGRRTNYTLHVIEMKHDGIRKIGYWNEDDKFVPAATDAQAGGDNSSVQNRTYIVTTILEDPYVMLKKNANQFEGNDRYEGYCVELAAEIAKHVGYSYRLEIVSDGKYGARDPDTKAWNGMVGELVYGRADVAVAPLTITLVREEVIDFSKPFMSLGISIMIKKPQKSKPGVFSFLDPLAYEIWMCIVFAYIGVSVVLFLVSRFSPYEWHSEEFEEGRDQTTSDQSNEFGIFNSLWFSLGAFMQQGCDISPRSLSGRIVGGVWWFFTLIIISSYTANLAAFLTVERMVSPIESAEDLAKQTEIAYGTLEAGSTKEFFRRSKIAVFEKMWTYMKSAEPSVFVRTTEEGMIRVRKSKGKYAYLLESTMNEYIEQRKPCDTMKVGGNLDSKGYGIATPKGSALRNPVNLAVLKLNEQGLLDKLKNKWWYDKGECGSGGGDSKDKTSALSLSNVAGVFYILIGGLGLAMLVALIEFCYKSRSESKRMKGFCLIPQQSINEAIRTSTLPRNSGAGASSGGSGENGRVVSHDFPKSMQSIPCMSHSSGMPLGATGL

NR1 A subtype = molecular target: T2, NR1 A subtype (Homo sapiens, UniProt Q05586); type: cell-based
T2 construct: expressed in transfected cells; host or cells: oocytes

[3] = molecular target: kainate receptors (GluR6) (Homo sapiens, UniProt Q13002); type: cell-based
Sequence of kainate receptors (GluR6) (Q13002 32-908, species assumed): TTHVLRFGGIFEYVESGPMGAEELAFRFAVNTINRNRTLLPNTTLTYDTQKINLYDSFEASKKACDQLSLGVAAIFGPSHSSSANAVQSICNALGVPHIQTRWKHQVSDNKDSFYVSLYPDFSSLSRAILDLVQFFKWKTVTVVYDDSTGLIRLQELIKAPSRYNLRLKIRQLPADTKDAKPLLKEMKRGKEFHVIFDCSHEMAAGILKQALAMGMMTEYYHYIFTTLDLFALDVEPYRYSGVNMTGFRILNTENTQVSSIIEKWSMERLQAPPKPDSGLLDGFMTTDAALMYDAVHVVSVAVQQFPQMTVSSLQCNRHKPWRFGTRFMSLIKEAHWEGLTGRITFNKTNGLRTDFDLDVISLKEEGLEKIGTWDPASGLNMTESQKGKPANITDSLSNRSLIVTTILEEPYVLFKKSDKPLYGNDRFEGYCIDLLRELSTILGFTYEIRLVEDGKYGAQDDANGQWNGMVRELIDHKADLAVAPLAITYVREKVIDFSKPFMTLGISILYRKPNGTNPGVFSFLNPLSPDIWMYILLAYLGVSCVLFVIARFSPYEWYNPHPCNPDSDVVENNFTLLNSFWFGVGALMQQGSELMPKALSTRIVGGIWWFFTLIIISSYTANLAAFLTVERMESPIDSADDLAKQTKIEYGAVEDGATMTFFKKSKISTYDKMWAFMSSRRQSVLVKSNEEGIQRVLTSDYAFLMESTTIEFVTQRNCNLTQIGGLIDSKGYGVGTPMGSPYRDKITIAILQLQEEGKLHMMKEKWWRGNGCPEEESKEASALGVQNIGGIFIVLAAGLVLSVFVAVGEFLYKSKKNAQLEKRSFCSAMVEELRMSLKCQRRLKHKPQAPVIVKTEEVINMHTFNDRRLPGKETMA

CF #1 Mice = settings: mouse, in vivo
[4] = system: young (<2 weeks old) mice; settings: mouse, in vivo; remark: listed apart in the source
[5] = system: young (<2 weeks old) mice; settings: mouse, in vivo; remark: listed apart in the source
NR1-1b/NR2D combination = molecular target: T3, NR1-1b/NR2D combination (Homo sapiens, UniProt O15399+Q05586); type: cell-based
T3 construct: expressed in transfected cells; host or cells: oocytes
T3 sequence (O15399 28-1336, other chains not shown): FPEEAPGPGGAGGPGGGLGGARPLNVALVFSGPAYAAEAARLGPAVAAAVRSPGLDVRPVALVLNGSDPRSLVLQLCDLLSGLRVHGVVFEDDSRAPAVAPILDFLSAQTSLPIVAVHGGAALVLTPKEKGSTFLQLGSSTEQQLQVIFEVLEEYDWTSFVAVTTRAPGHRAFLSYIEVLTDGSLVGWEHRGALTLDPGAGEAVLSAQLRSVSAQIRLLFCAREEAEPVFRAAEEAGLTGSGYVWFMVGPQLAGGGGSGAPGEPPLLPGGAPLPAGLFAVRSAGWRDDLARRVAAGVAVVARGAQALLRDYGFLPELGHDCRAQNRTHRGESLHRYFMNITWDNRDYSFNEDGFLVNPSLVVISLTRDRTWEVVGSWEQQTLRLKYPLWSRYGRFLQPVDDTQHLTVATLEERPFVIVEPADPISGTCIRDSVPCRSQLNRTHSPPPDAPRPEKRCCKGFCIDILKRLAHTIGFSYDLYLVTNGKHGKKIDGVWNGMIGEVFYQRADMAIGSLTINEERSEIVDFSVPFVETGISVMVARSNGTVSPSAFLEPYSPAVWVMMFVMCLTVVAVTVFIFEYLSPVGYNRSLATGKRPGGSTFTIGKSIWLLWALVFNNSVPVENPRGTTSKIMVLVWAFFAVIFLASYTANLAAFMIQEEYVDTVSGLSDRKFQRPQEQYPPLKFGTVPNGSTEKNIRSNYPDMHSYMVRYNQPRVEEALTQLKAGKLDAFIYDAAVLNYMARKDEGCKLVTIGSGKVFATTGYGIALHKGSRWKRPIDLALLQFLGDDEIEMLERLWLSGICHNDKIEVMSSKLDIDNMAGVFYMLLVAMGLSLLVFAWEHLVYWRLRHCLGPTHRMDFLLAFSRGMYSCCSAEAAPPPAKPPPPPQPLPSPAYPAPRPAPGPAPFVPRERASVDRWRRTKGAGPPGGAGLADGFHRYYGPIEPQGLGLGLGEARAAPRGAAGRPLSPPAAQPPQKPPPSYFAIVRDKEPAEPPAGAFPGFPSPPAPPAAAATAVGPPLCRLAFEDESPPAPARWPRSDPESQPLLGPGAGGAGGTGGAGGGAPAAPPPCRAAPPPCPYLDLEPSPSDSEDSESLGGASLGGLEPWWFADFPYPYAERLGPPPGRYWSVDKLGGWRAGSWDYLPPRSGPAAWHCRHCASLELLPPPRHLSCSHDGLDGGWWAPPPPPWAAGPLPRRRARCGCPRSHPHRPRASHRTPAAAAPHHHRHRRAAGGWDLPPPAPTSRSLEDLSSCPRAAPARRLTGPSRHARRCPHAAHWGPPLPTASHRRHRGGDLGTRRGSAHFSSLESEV

NR1-1b/NR2B NMDA subtype [6] = experiment: cell-based
NR1-1b/NR2B NMDA subtype [7] = molecular target: T4, NR1-1b/NR2B NMDA subtype (Homo sapiens, UniProt Q05586+Q13224); experiment: cell-based
T4 construct: expressed in transfected cells; host or cells: oocytes
T4 sequence (Q13224 27-1484, other chains not shown): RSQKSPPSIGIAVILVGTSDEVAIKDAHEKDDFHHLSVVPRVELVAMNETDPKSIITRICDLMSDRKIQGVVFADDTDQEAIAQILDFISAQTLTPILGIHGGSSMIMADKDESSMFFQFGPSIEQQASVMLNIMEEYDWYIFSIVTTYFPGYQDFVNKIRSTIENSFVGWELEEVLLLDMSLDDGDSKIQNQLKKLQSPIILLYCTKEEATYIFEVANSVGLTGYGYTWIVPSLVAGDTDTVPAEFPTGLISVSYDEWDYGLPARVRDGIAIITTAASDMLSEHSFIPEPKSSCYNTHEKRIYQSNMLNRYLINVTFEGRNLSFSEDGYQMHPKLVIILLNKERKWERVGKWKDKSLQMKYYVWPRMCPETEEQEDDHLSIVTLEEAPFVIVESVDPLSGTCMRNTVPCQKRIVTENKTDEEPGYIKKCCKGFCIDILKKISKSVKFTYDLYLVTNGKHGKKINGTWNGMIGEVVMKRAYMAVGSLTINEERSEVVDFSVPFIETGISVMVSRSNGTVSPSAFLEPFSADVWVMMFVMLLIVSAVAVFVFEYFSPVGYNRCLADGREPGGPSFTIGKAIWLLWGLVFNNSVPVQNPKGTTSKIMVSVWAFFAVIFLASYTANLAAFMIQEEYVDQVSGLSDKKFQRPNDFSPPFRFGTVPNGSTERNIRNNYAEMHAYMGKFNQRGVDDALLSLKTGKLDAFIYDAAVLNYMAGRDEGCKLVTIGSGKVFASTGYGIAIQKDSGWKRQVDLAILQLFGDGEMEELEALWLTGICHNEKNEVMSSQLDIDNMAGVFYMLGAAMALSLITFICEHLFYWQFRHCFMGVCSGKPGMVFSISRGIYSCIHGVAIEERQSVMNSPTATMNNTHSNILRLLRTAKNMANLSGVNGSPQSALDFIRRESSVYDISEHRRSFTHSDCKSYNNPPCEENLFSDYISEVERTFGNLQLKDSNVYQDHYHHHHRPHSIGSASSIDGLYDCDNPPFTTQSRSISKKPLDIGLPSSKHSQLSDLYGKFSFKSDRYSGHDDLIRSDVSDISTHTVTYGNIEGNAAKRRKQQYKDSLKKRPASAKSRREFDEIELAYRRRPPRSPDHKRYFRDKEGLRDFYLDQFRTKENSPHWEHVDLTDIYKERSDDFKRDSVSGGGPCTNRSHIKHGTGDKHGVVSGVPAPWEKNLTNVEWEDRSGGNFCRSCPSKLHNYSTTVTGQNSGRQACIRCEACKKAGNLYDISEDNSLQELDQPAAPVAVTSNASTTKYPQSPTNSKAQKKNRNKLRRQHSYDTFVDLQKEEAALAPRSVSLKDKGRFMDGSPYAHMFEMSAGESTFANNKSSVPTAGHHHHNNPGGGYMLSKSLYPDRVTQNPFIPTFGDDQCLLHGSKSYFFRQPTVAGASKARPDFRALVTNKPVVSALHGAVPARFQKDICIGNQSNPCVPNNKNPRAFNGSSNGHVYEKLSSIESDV

[8] = system: Frings audiogenic seizure-susceptible mice; settings: mouse, in vivo; remark: listed apart in the source
NMDA receptor [9] = experiment: spermine-stimulated [3H]MK-801 binding assay, inhibition
[10] = molecular target: NR1-1b/NR2B NMDA receptor subtype
NMDA receptor [11] = molecular target: NMDA receptor

CC[C@H](C)[C@H](NC(=O)[C@H](CC(N)=O)NC(=O)[C@H](CC(C(=O)O)C(=O)O)NC(=O)[C@H](CCCNC(=N)N)NC(=O)[C@H](C)NC(=O)[C@H](CC(C)C)NC(=O)[C@H](CC(C(=O)O)C(=O)O)NC(=O)[C@H](C)NC(=O)[C@H](C)NC(=O)[C@H](CCSC)NC(=O)[C@H](CCCCN)NC(=O)[C@H](C)NC(=O)[C@@H](NC(=O)[C@H](CC(C(=O)O)C(=O)O)NC(=O)[C@H](CC(C(=O)O)C(=O)O)NC(=O)[C@H](CCC(=O)O)NC(=O)CN)C(C)C)C(=O)N[C@@H](C)C(=O)N[C@@H](CCCCN)C(=O)NCC(=O)N[C@H]1CSSC[C@@H](C(=O)N[C@@H](Cc2ccc(O)cc2)C(=O)N2CCC[C@H]2C(=O)O)NC(=O)[C@H](CC(N)=O)NC(=O)[C@H](C(C)C)NC(=O)[C@H](CCCCN)NC1=O [Con R, Conantokin R]
inhibition of homomeric NR1 complex, NR1.1 B subtype (NR1.1 B subtype): only inhibited the NR1.1 B subtype
Catalepsy Test, positive/tested [1]: 2/3
MES ED50 (CF No. 1 mice): 0.083 nmols
P.I. (CF No. 1 mice): 3.6
anticonvulsant activity in CF No. 1 mice (CF No. 1 mice): anticonvulsant activity
# Protected/# Tested [2]: 4/4
ED50 [2]: 0.013^c nmols and 0.013 nmols
ED50 (pmol, i.c.v.) [2]: 9 pmol and 9.00 pmol
P.I. [2]: 17
Protective Index, PI (TD50/ED50) [2]: 18
antiseizure activity relative to valproic acid [2]: greater than 400,000 fold
protective index relative to valproic acid [2]: at least eight times better
inhibition of AMPA receptor GluR1 (AMPA receptor GluR1): not to inhibit
inhibition of homomeric NR1 complex, A subtype (NR1 A subtype): no effect
inhibition of kainate receptors (GluR6) [3]: not to inhibit
TD50 (CF #1 Mice): ˜0.300 nmols
Sleepy Test, positive/tested [4]: 2/3
Righting Reflex, positive/tested [5]: 2/3
effect on NR1-1b/NR2D combination (NR1-1b/NR2D combination): not affected
affinity for NR1-1b/NR2B relative to NR1-1b/NR2D (NR1-1b/NR2B NMDA subtype [6]): greater than 50 fold
selectivity for the B splice variant of NR1 in heteromeric complexes (NR1-1b/NR2B NMDA subtype [6]): selective for the B splice variant
inhibition of heteromeric NR1:NR2B complexes with B splice variant of NR1 (NR1-1b/NR2B NMDA subtype [7]): inhibited
inhibition at 3 µM (NR1-1b/NR2B NMDA subtype [7]; read-out: inhibition of the current produced by the NR1-1b/NR2B NMDA subtype in response to glutamate and glycine): ~95%
TD50 [8]: 164 pmol

Conatokin L [Con L]
Catalepsy Test, positive/tested [1]: 4/4 and 3/4
anticonvulsant activity in CF No. 1 mice (CF No. 1 mice): anticonvulsant activity
Sleepy Test, positive/tested [4]: 4/4
Righting Reflex, positive/tested [5]: 2/4 and 3/4

Conantokin S1 [Con S1]
anticonvulsant activity in CF No. 1 mice (CF No. 1 mice): anticonvulsant activity

Conantokin Oc [Con Oc]
Catalepsy Test, positive/tested [1]: 0/3
Sleepy Test, positive/tested [4]: 2/3 and 0/3
Righting Reflex, positive/tested [5]: 0/3

A^7 Con G (peptide)
IC50 (NMDA receptor [9]): 0.045 µM

Conantokin R (peptide)
Ki [10]: 0.14 µM

Conantokin G (peptide)
IC50 (NMDA receptor [9]): 0.195 µM
IC50 (NMDA receptor [11]): 0.195 µM

Conantokin Qu [Con Qu]
anticonvulsant activity in CF No. 1 mice (CF No. 1 mice): anticonvulsant activity

Conantokin Gm [Con Gm]
anticonvulsant activity in CF No. 1 mice (CF No. 1 mice): anticonvulsant activity

CSCC[C@H](NC(=O)[C@H](CCCCN)NC(=O)[C@H](CCC(N)=O)NC(=O)[C@H](Cc1ccc(O)cc1)NC(=O)[C@H](CC(C(=O)O)C(=O)O)NC(=O)[C@H](CC(C(=O)O)C(=O)O)NC(=O)[C@H](CCC(=O)O)NC(=O)CN)C(=O)N[C@@H](CC(C)C)C(=O)N[C@@H](CC(C(=O)O)C(=O)O)C(=O)N[C@@H](CC(N)=O)C(=O)N[C@@H](CC(C)C)C(=O)N[C@@H](CCCNC(=N)N)C(=O)N[C@@H](CC(C(=O)O)C(=O)O)C(=O)N[C@@H](C)C(=O)N[C@@H](CCC(=O)O)C(=O)N[C@H](C(=O)N[C@@H](CCCCN)C(=O)N[C@@H](CCCCN)C(=O)N[C@@H](CC(N)=O)C(=O)N[C@@H](C)C(N)=O)C(C)C [Con T, Conantokin T] (H-GE[Gla][Gla]YQKML[Gla]NLR[Gla]AEVKKNA-NH2)
P.I. [2]: 13
TD50 [8]: 0.228 nmols
behavioral toxicity, rotorod test ([8]; iv, 12 mg/kg): No animals exhibited behavioral toxicity
